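These data come from cells grown in 96-well plates and exposed to compound for 48 hours at five concentrations. At the GI50, growth is halved.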 Activity calls are given as the source filed them. No stated cut-off is given here; in the data, active = GI50 up to about 1.1 µM and inactive = higher.
Columns and labels:
Assay in all cases: DTP human tumour cell line panel, 48 h
SNB-78 = test system: SNB-78
KM-20L2 = test system: KM-20L2
DLD-1 = test system: DLD-1
LXFL 529 = test system: LXFL 529
DMS-273 = test system: DMS-273
M19-MEL = test system: M19-MEL
DMS-114 = test system: DMS-114
RXF 631 = test system: RXF 631
HOP-18 = test system: HOP-18

Compound | GI50 (SNB-78) | GI50 (KM-20L2) | GI50 (DLD-1) | GI50 (LXFL 529) | GI50 (DMS-273) | GI50 (M19-MEL) | GI50 (DMS-114) | GI50 (RXF 631) | GI50 (HOP-18)
C/N=C1\CC2c3cc(OC)c(OC)cc3CCN2C2=C1C(=O)CC(C)(C)C2 (stereo not given) | > 100 µM (inactive) | > 100 µM (inactive) | > 100 µM (inactive) | > 100 µM (inactive) | > 100 µM (inactive) | > 100 µM (inactive) | > 100 µM (inactive) | – | –
O=c1/c(=C/c2ccccc2F)sc2nc3ccccc3n12 | > 100 µM (inactive) | > 100 µM (inactive) | > 100 µM (inactive) | 88.3 µM (inactive) | > 100 µM (inactive) | > 100 µM (inactive) | 67.3 µM (inactive) | > 100 µM (inactive) | –
Cc1ccn2c(c1)nc1nc3ccccc3nc12 | > 100 µM (inactive) | > 100 µM (inactive) | > 100 µM (inactive) | > 100 µM (inactive) | > 100 µM (inactive) | > 100 µM (inactive) | > 100 µM (inactive) | – | –
CC1=NOC(=O)/C1=C/c1ccccc1O | > 100 µM (inactive) | > 100 µM (inactive) | > 100 µM (inactive) | > 100 µM (inactive) | > 100 µM (inactive) | > 100 µM (inactive) | > 100 µM (inactive) | > 100 µM (inactive) | > 100 µM (inactive)
C=CCNC(=S)N1CC(C)C(=O)Nc2cc(Cl)ccc21 (stereo not given) | > 100 µM (inactive) | > 100 µM (inactive) | > 100 µM (inactive) | > 100 µM (inactive) | > 100 µM (inactive) | > 100 µM (inactive) | > 100 µM (inactive) | – | 39.4 µM (inactive)
COc1cc(/C=C2\[C@H]3c4c(c(OC)c(C)c(OC)c4OC)C[C@@H](C(=O)N2Cc2ccccc2)N3C(=O)OCC(C)C)c(OC)c(C)c1OC | – | > 69.8 µM (inactive) | > 100 µM (inactive) | > 100 µM (inactive) | 47.1 µM (inactive) | > 100 µM (inactive) | – | – | > 100 µM (inactive)
CC(C)=C1CCC(CN2CCOCC2)C1=O (stereo not given) | 9.38 µM (inactive) | 16.4 µM (inactive) | 4.38 µM (inactive) | 2.38 µM (inactive) | – | 22.1 µM (inactive) | 7.89 µM (inactive) | 9.23 µM (inactive) | 9.35 µM (inactive)
Cc1ccc([N+](=O)[O-])cc1NC(=O)/C(=N/NC(=S)NN)C1SC(=S)NC1=O (stereo not given) | > 100 µM (inactive) | > 100 µM (inactive) | > 100 µM (inactive) | > 100 µM (inactive) | > 100 µM (inactive) | – | > 100 µM (inactive) | – | > 100 µM (inactive)
NN/C(Cc1ccccc1)=N\NO | – | 32.5 µM (inactive) | > 100 µM (inactive) | 55.1 µM (inactive) | > 100 µM (inactive) | > 100 µM (inactive) | 25.5 µM (inactive) | 32.2 µM (inactive) | > 100 µM (inactive)
O=C(CC1(O)C(=O)Nc2ccccc21)c1ccc(Cl)c(Cl)c1 (stereo not given) | 97.3 µM (inactive) | > 100 µM (inactive) | > 100 µM (inactive) | > 100 µM (inactive) | > 100 µM (inactive) | 77.4 µM (inactive) | > 100 µM (inactive) | – | –
C=CCc1cc(OC)c2c(c1)C(OC)CC(c1ccc(OC)c(OC)c1)O2 (stereo not given) | > 100 µM (inactive) | > 100 µM (inactive) | > 100 µM (inactive) | > 100 µM (inactive) | > 100 µM (inactive) | > 100 µM (inactive) | 67.5 µM (inactive) | > 100 µM (inactive) | –
CCn1c2c(c3ccccc31)[C@@H](c1ccc(Cl)cc1)CC1C(=O)N(c3ccccc3)C(=O)C21 (stereo not given in full) | 26.4 µM (inactive) | > 100 µM (inactive) | > 100 µM (inactive) | > 100 µM (inactive) | > 100 µM (inactive) | > 100 µM (inactive) | 46.8 µM (inactive) | – | > 100 µM (inactive)
Cc1nc(-c2nc(C)c(C(=O)NN(C)C)s2)sc1C(=O)NN(C)C | > 100 µM (inactive) | > 100 µM (inactive) | 33.9 µM (inactive) | > 100 µM (inactive) | 16.2 µM (inactive) | > 100 µM (inactive) | – | – | > 100 µM (inactive)
Cc1ccc(Nc2ccc(Nc3ccc(C)cc3S(=O)(=O)O)c3c2C(=O)c2ccccc2C3=O)c(S(=O)(=O)O)c1 | > 100 µM (inactive) | > 100 µM (inactive) | > 100 µM (inactive) | > 100 µM (inactive) | > 100 µM (inactive) | – | > 100 µM (inactive) | > 100 µM (inactive) | > 100 µM (inactive)
C=C1C(=O)O[C@@H]2C[C@@H](C)[C@@H]3C=CC(=O)[C@@]3(C)[C@@H](O)[C@H]12 [HELENALIN] | – | 1.73 µM (inactive) | 0.557 µM (active) | 0.493 µM (active) | 1.53 µM (inactive) | 2.82 µM (inactive) | 1.45 µM (inactive) | – | 2.02 µM (inactive)
COC1=CC(=Nc2c(Cl)cc(Cl)cc2OC(=O)c2ccc([N+](=O)[O-])cc2)C=C(OC)C1=O | 23.3 µM (inactive) | 17.7 µM (inactive) | 12.4 µM (inactive) | 5.78 µM (inactive) | 13.6 µM (inactive) | 3.41 µM (inactive) | 3.79 µM (inactive) | 4.51 µM (inactive) | –
N#Cc1ccccc1NC(=O)C(=O)C1NC(=S)NC1=O (stereo not given) | – | > 100 µM (inactive) | > 100 µM (inactive) | > 100 µM (inactive) | – | > 100 µM (inactive) | > 100 µM (inactive) | – | 46.6 µM (inactive)
C=CCOC(=O)C1CCC(=O)N1C(=O)C(Cl)Cl (stereo not given) | > 100 µM (inactive) | > 100 µM (inactive) | > 100 µM (inactive) | > 100 µM (inactive) | > 100 µM (inactive) | > 100 µM (inactive) | > 100 µM (inactive) | – | > 100 µM (inactive)
O=C(CC1(O)C(=O)Nc2c(Cl)cc(Cl)cc21)c1ccccc1 (stereo not given) | 81.3 µM (inactive) | > 100 µM (inactive) | – | 50.1 µM (inactive) | 45.7 µM (inactive) | 31.6 µM (inactive) | 39.7 µM (inactive) | > 100 µM (inactive) | –
CC1(C)CC(=O)c2c(oc3cc(O)c(O)cc23)C1 | 46.9 µM (inactive) | 33.7 µM (inactive) | 22.9 µM (inactive) | 24.7 µM (inactive) | 28.6 µM (inactive) | 35.3 µM (inactive) | 13.2 µM (inactive) | 26.3 µM (inactive) | 40.1 µM (inactive)
CC(=O)NC(CCCCN)C(=O)NCc1ccccc1 (stereo not given) | – | > 100 µM (inactive) | > 100 µM (inactive) | > 100 µM (inactive) | > 100 µM (inactive) | > 100 µM (inactive) | > 100 µM (inactive) | – | –
CC[C@@H]1C[C@H]2CC3c4[nH]c5ccc(O)cc5c4CCN(C2)C31 | > 100 µM (inactive) | > 100 µM (inactive) | – | > 100 µM (inactive) | > 100 µM (inactive) | > 100 µM (inactive) | > 100 µM (inactive) | > 100 µM (inactive) | > 100 µM (inactive)
